# Experimental data published in the supplement of paper PMC10307832.
# Tests used:
# Test in all cases: relative viability (nuclei count vs DMSO), 5 days (fraction); higher = more cells survive
# EPLC-272H = test system: EPLC-272H
# Procedure, shortened: (§1)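 One day after seeding in 1536-well plates, lung cancer cell lines were dosed by pin tool. Dosing was either single-drug or a fixed anchor-drug dose plus five library-drug doses (not always all listed) in √10 steps. After 5 days, nuclei were stained in one fix-and-stain step and counted on 4× images, and relative viability is the nuclei count of treated wells over that of vehicle wells, given as the median of duplicate plates.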
# NCI-H2170 = test system: NCI-H2170
# Procedure, shortened: as §1
# NCI-H2023 = test system: NCI-H2023
# Procedure, shortened: as §1
# NCI-H1793 = test system: NCI-H1793
# Procedure, shortened: as §1
# UMC-11 = test system: UMC-11
# Procedure, shortened: as §1
# COR-L23 = test system: COR-L23
# Procedure, shortened: as §1
# NCI-H2347 = test system: NCI-H2347
# Procedure, shortened: as §1
# NCI-H647 = test system: NCI-H647
# Procedure, shortened: as §1
# NCI-H322M = test system: NCI-H322M
# Procedure, shortened: as §1
# HCC-15 = test system: HCC-15
# Procedure, shortened: as §1
# 201T = test system: 201T
# Procedure, shortened: as §1
# NCI-H520 = test system: NCI-H520
# Procedure, shortened: as §1
# H3255 = test system: H3255
# Procedure, shortened: as §1
# NCI-H1734 = test system: NCI-H1734
# Procedure, shortened: as §1
# NCI-H3122 = test system: NCI-H3122
# Procedure, shortened: as §1
# NCI-H2405 = test system: NCI-H2405
# Procedure, shortened: as §1
# NCI-H1650 = test system: NCI-H1650
# Procedure, shortened: as §1
# PC-14 = test system: PC-14
# Procedure, shortened: as §1
# NCI-H1563 = test system: NCI-H1563
# Procedure, shortened: as §1
# LOU-NH91 = test system: LOU-NH91
# Procedure, shortened: as §1
compound,measurement,setting,value
O=c1cc(-c2cccc3c2Sc2ccccc2S3)oc(N2CCOCC2)c1 + CS(=O)(=O)CCNCc1ccc(-c2ccc3ncnc(Nc4ccc(OCc5cccc(F)c5)c(Cl)c4)c3c2)o1 [Lapatinib] (partner 2 µM),relative viability,EPLC-272H; first compound 0.08 µM,0.935
same,relative viability,EPLC-272H; first compound 0.253 µM,0.841
same,relative viability,EPLC-272H; first compound 0.8 µM,0.867
same,relative viability,EPLC-272H; first compound 2.53 µM,0.779
same,relative viability,EPLC-272H; first compound 8 µM,1.2
same,relative viability,NCI-H2170; first compound 0.08 µM,0.258
same,relative viability,NCI-H2170; first compound 0.253 µM,0.284
same,relative viability,NCI-H2170; first compound 0.8 µM,0.239
same,relative viability,NCI-H2170; first compound 2.53 µM,0.271
same,relative viability,NCI-H2170; first compound 8 µM,0.308
same,relative viability,NCI-H2023; first compound 0.08 µM,0.767
same,relative viability,NCI-H2023; first compound 0.253 µM,1.03
same,relative viability,NCI-H2023; first compound 0.8 µM,0.748
same,relative viability,NCI-H2023; first compound 2.53 µM,0.571
same,relative viability,NCI-H2023; first compound 8 µM,0.94
same,relative viability,NCI-H1793; first compound 0.08 µM,0.641
same,relative viability,NCI-H1793; first compound 0.253 µM,1.16
same,relative viability,NCI-H1793; first compound 0.8 µM,0.643
same,relative viability,NCI-H1793; first compound 2.53 µM,0.837
same,relative viability,NCI-H1793; first compound 8 µM,0.752
same,relative viability,UMC-11; first compound 0.08 µM,1.02
same,relative viability,UMC-11; first compound 0.253 µM,1.28
same,relative viability,UMC-11; first compound 0.8 µM,1.21
same,relative viability,UMC-11; first compound 2.53 µM,0.78
same,relative viability,UMC-11; first compound 8 µM,1.29
same,relative viability,COR-L23; first compound 0.08 µM,1.1
same,relative viability,COR-L23; first compound 0.253 µM,1.67
same,relative viability,COR-L23; first compound 0.8 µM,0.962
same,relative viability,COR-L23; first compound 2.53 µM,0.836
same,relative viability,COR-L23; first compound 8 µM,1.09
same,relative viability,NCI-H2347; first compound 0.08 µM,0.978
same,relative viability,NCI-H2347; first compound 0.253 µM,1.09
same,relative viability,NCI-H2347; first compound 0.8 µM,1.02
same,relative viability,NCI-H2347; first compound 2.53 µM,1.04
same,relative viability,NCI-H2347; first compound 8 µM,1.19
same,relative viability,NCI-H647; first compound 0.08 µM,1.19
same,relative viability,NCI-H647; first compound 0.253 µM,1.21
same,relative viability,NCI-H647; first compound 0.8 µM,0.985
same,relative viability,NCI-H647; first compound 2.53 µM,0.886
same,relative viability,NCI-H647; first compound 8 µM,0.83
same,relative viability,NCI-H322M; first compound 0.08 µM,0.64
same,relative viability,NCI-H322M; first compound 0.253 µM,0.768
same,relative viability,NCI-H322M; first compound 0.8 µM,0.529
same,relative viability,NCI-H322M; first compound 2.53 µM,0.564
same,relative viability,NCI-H322M; first compound 8 µM,0.607
same,relative viability,HCC-15; first compound 0.08 µM,0.885
same,relative viability,HCC-15; first compound 0.253 µM,1.02
same,relative viability,HCC-15; first compound 0.8 µM,0.873
same,relative viability,HCC-15; first compound 2.53 µM,0.82
same,relative viability,HCC-15; first compound 8 µM,0.988
same,relative viability,201T; first compound 0.08 µM,1.02
same,relative viability,201T; first compound 0.253 µM,1.09
same,relative viability,201T; first compound 0.8 µM,0.915
same,relative viability,201T; first compound 2.53 µM,0.951
same,relative viability,201T; first compound 8 µM,1
same,relative viability,NCI-H520; first compound 0.08 µM,0.767
same,relative viability,NCI-H520; first compound 0.253 µM,1.13
same,relative viability,NCI-H520; first compound 0.8 µM,0.973
same,relative viability,NCI-H520; first compound 2.53 µM,0.787
same,relative viability,NCI-H520; first compound 8 µM,0.961
same,relative viability,H3255; first compound 0.08 µM,0.239
same,relative viability,H3255; first compound 0.253 µM,0.226
same,relative viability,H3255; first compound 0.8 µM,0.224
same,relative viability,H3255; first compound 2.53 µM,0.231
same,relative viability,H3255; first compound 8 µM,0.225
same,relative viability,NCI-H1734; first compound 0.08 µM,1.07
same,relative viability,NCI-H1734; first compound 0.253 µM,1.55
same,relative viability,NCI-H1734; first compound 0.8 µM,1.12
same,relative viability,NCI-H1734; first compound 2.53 µM,0.79
same,relative viability,NCI-H1734; first compound 8 µM,1.51
same,relative viability,NCI-H3122; first compound 0.08 µM,1.03
same,relative viability,NCI-H3122; first compound 0.253 µM,1.15
same,relative viability,NCI-H3122; first compound 0.8 µM,1
same,relative viability,NCI-H3122; first compound 2.53 µM,0.96
same,relative viability,NCI-H3122; first compound 8 µM,1.02
same,relative viability,NCI-H2405; first compound 0.08 µM,0.928
same,relative viability,NCI-H2405; first compound 0.253 µM,1.1
same,relative viability,NCI-H2405; first compound 0.8 µM,1.02
same,relative viability,NCI-H2405; first compound 2.53 µM,0.937
same,relative viability,NCI-H2405; first compound 8 µM,1.02
same,relative viability,NCI-H1650; first compound 0.08 µM,0.687
same,relative viability,NCI-H1650; first compound 0.253 µM,0.917
same,relative viability,NCI-H1650; first compound 0.8 µM,0.717
same,relative viability,NCI-H1650; first compound 2.53 µM,0.84
same,relative viability,NCI-H1650; first compound 8 µM,0.847
same,relative viability,PC-14; first compound 0.08 µM,0.291
same,relative viability,PC-14; first compound 0.253 µM,0.388
same,relative viability,PC-14; first compound 0.8 µM,0.245
same,relative viability,PC-14; first compound 2.53 µM,0.245
same,relative viability,PC-14; first compound 8 µM,0.308
same,relative viability,NCI-H1563; first compound 0.08 µM,0.872
same,relative viability,NCI-H1563; first compound 0.253 µM,0.978
same,relative viability,NCI-H1563; first compound 0.8 µM,0.9
same,relative viability,NCI-H1563; first compound 2.53 µM,0.934
same,relative viability,NCI-H1563; first compound 8 µM,0.891
same,relative viability,LOU-NH91; first compound 0.08 µM,0.707
same,relative viability,LOU-NH91; first compound 0.253 µM,0.803
same,relative viability,LOU-NH91; first compound 0.8 µM,0.554
same,relative viability,LOU-NH91; first compound 2.53 µM,0.751
same,relative viability,LOU-NH91; first compound 8 µM,0.732
